Measured values from patent publication US11572590B2, “Methods for evaluating tumor cell spheroids using 3D microfluidic cell culture device” (Dana-Farber Cancer Institute, Inc., priority 2017, dated 2023).
Where two headings read alike, the source gives them in different places.

Columns and labels:
Assay in all cases: SelectScreen Kinase Profiling, single point inhibition and IC50 for off-target kinases
Type in all cases: biochemical
off-target kinases [1] = molecular target: T1, off-target kinases (Homo sapiens, UniProt Q08881); conditions: ITK, ZLYTE, ATP Km app
T1 sequence (Q08881 1-620): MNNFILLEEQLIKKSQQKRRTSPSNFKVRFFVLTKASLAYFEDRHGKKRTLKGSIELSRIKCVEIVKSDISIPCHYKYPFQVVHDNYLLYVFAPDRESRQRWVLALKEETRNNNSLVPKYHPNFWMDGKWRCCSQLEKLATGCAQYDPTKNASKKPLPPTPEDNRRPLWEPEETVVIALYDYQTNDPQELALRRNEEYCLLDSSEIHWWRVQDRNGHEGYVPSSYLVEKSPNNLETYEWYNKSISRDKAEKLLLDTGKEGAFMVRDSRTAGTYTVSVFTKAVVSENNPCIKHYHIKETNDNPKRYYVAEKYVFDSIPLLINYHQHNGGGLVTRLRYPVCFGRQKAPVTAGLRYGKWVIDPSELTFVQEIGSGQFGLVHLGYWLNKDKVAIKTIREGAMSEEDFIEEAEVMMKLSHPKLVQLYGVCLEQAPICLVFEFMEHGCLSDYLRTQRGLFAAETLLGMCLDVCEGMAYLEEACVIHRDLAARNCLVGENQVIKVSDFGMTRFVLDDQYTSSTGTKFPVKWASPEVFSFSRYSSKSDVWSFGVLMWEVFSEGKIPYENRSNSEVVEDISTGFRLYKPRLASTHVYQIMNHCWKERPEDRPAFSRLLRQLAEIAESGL

off-target kinases [2] = molecular target: off-target kinases (Homo sapiens, UniProt P30530); conditions: AXL, ZLYTE, ATP Km app
Sequence of off-target kinases (Homo sapiens, UniProt P30530) (P30530 26-894): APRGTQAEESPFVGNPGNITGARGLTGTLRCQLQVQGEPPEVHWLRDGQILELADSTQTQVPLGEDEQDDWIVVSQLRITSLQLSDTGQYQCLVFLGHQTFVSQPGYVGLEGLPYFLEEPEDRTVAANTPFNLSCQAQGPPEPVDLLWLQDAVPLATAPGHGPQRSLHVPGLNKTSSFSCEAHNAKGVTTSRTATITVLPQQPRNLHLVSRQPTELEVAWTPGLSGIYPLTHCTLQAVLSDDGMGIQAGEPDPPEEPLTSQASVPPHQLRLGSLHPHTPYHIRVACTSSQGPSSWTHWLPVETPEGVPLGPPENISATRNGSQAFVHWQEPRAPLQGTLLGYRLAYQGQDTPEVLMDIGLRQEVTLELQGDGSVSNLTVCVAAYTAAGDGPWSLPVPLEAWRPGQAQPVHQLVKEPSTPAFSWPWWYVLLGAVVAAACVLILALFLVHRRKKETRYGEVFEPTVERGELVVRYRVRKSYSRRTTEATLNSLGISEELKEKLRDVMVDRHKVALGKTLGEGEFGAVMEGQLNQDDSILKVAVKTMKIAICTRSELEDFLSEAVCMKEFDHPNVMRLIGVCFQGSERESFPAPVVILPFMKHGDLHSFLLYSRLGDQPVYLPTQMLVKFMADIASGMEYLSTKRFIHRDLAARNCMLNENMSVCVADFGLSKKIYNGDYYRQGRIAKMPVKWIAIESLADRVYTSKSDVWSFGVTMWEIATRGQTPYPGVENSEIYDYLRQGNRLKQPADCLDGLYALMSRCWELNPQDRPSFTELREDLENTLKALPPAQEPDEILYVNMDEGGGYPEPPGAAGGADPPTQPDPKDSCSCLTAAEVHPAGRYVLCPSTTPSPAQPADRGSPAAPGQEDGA

off-target kinases [3] = molecular target: off-target kinases (Homo sapiens, UniProt O00418)
Sequence of off-target kinases (Homo sapiens, UniProt O00418) (O00418 whole entry): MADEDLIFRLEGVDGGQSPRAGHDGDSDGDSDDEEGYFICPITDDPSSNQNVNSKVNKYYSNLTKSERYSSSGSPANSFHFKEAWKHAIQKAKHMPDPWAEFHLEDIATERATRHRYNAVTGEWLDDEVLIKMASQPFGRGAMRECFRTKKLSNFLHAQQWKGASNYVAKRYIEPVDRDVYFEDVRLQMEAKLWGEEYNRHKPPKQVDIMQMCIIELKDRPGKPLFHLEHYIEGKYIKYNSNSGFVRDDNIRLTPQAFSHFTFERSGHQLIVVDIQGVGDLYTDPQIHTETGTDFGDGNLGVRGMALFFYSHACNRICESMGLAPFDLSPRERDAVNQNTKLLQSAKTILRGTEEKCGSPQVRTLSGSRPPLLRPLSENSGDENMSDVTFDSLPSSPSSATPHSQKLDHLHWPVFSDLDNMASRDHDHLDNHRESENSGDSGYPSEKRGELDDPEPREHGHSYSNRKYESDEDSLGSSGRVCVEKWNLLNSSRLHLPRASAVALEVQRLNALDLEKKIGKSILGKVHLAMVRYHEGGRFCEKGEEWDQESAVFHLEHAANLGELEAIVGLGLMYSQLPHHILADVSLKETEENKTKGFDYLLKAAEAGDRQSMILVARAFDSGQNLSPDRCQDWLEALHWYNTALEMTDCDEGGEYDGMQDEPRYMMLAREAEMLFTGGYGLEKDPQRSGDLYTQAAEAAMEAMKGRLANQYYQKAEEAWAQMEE

off-target kinases [4] = molecular target: off-target kinases (Homo sapiens, UniProt P16591); conditions: FER, ZLYTE, ATP Km app
Sequence of off-target kinases (Homo sapiens, UniProt P16591) (P16591 whole entry): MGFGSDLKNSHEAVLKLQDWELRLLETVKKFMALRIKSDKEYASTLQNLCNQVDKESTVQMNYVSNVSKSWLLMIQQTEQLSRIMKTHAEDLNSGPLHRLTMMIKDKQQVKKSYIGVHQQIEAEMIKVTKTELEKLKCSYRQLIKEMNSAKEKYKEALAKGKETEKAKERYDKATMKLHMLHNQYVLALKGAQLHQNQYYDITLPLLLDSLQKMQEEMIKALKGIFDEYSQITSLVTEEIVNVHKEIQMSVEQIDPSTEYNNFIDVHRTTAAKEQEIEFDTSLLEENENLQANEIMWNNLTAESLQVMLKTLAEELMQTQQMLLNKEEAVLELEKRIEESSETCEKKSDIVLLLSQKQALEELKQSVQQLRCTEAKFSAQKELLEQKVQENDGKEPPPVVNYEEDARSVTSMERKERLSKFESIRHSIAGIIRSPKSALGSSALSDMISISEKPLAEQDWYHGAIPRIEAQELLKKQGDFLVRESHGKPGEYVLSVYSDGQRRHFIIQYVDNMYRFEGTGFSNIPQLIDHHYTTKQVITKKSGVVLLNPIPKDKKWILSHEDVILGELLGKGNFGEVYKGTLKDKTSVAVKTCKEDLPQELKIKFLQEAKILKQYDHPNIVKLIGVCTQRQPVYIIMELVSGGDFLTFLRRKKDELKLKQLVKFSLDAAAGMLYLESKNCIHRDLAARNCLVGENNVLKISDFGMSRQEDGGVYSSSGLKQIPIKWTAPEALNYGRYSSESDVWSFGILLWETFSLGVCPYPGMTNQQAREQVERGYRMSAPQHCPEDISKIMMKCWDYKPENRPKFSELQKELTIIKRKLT

off-target kinases [5] = molecular target: off-target kinases (Homo sapiens, UniProt P07949, Y791F); conditions: RET Y791F, ATP Km app, ZLYTE
off-target kinases [6] = molecular target: off-target kinases (Homo sapiens, UniProt P49841); conditions: GSK3B (GSK3 beta), ZLYTE, ATP Km app
Sequence of off-target kinases (Homo sapiens, UniProt P49841) (P49841 whole entry): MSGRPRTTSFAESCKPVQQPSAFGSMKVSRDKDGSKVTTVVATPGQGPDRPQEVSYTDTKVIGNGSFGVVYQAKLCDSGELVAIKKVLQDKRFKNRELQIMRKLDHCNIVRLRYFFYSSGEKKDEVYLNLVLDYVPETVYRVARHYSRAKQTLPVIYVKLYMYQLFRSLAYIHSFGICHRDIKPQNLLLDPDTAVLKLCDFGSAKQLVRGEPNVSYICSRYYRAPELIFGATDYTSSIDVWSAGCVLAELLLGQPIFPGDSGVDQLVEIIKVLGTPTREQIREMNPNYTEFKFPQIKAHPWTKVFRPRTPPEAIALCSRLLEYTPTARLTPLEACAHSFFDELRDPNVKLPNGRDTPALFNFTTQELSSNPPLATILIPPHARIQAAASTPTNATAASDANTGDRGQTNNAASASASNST

off-target kinases [7] = molecular target: off-target kinases (Homo sapiens, UniProt Q16816); conditions: PHKG1, ZLYTE, ATP Km app
Sequence of off-target kinases (Homo sapiens, UniProt Q16816) (Q16816 whole entry): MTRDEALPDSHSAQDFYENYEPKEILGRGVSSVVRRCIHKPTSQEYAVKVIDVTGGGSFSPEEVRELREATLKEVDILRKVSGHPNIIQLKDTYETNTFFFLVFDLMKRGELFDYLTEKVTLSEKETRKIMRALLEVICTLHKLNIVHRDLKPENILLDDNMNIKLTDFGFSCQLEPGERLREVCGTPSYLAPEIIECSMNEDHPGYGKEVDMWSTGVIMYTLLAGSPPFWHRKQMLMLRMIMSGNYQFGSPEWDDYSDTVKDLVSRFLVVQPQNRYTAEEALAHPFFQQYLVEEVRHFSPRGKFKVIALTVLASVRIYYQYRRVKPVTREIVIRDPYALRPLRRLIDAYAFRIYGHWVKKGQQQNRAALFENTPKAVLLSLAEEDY

off-target kinases [8] = molecular target: off-target kinases (Homo sapiens, UniProt Q9Y2H1); conditions: STK38L (NDR2), LanthaScreen Binding
Sequence of off-target kinases (Homo sapiens, UniProt Q9Y2H1) (Q9Y2H1 whole entry): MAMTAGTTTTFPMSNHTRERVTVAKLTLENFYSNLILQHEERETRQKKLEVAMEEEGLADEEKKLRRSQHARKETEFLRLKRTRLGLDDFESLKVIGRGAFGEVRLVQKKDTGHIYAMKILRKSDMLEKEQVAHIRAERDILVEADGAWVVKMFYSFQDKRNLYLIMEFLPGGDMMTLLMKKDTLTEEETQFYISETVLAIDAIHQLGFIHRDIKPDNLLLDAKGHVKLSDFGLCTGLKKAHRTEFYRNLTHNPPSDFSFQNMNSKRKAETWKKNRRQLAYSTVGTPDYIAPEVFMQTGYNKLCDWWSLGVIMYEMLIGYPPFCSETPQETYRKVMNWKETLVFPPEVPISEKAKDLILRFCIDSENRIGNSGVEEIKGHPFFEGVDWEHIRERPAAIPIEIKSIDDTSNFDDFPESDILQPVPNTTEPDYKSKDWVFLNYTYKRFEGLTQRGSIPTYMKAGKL

off-target kinases [9] = molecular target: off-target kinases (Homo sapiens, UniProt Q07912); conditions: TNK2 (ACK), LanthaScreen Binding
Sequence of off-target kinases (Homo sapiens, UniProt Q07912) (Q07912 whole entry): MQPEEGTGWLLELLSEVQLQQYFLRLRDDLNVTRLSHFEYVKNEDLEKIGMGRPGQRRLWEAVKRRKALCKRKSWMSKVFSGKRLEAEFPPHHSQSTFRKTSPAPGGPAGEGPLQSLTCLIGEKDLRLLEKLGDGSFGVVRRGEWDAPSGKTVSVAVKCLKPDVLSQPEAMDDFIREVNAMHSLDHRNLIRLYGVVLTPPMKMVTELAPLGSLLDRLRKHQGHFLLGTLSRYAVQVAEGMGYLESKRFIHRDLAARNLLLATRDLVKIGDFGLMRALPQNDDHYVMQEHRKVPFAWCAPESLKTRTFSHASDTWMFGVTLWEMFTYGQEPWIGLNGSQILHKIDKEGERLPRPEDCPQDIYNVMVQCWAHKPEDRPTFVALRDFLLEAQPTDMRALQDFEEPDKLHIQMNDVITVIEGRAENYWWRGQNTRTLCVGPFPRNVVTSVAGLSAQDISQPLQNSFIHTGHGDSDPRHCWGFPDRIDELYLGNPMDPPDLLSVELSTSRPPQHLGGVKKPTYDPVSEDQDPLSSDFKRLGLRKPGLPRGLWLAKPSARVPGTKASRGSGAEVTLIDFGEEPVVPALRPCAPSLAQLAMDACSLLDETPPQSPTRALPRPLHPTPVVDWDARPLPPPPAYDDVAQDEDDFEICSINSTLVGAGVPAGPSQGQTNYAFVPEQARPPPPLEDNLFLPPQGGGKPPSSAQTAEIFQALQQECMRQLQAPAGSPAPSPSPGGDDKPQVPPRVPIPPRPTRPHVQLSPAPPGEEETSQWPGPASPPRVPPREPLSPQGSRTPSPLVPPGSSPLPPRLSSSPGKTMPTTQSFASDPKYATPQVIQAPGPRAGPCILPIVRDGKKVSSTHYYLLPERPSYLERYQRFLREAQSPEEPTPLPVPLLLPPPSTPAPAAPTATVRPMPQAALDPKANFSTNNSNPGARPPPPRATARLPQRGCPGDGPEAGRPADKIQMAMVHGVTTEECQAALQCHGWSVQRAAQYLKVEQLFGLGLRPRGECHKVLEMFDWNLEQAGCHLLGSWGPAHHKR

off-target kinases [10] = molecular target: off-target kinases (Homo sapiens, UniProt Q9UQM7)
off-target kinases [11] = molecular target: off-target kinases (Homo sapiens, UniProt Q8TDX7); conditions: NEK7, ZLYTE, ATP Km app
Sequence of off-target kinases (Homo sapiens, UniProt Q8TDX7) (Q8TDX7 whole entry): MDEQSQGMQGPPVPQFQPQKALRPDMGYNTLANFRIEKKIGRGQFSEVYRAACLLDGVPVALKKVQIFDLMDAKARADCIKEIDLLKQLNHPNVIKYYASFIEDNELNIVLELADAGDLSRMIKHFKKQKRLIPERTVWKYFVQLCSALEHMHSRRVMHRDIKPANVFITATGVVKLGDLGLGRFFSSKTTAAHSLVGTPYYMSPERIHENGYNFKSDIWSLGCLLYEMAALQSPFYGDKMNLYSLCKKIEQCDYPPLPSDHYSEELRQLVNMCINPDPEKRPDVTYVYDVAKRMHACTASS

## N#Cc1cc(-c2ncnc(Nc3ccc(N4CCN(C5COC5)CC4)cc3)n2)ccc1OC1CCOCC1 [Compound 1, 5-(4-((4-(4-(oxetan-3-yl)piperazin-1-yl)phenyl)amino)-1,3,5-triazin-2-yl)-2-((tetrahydro-2H-pyran-4-yl)oxy)benzonitrile]
off-target kinases [1]; read-out: % Inhibition 1
  inhibition: 37%
off-target kinases [1]; read-out: % Inhibition 2
  inhibition: 32%
off-target kinases [1]; read-out: % Inhibition Avg
  inhibition: 34%
off-target kinases [2]; read-out: % Inhibition 1
  inhibition: 22%
off-target kinases [2]; read-out: % Inhibition 2
  inhibition: 25%
off-target kinases [2]; read-out: % Inhibition Avg
  inhibition: 24%
off-target kinases [3]; read-out: % Inhibition 1
  inhibition: -1%
off-target kinases [3]; read-out: % Inhibition 2
  inhibition: 0%
off-target kinases [3]; read-out: % Inhibition Avg
  inhibition: -1%
off-target kinases [4]; read-out: % Inhibition 1
  inhibition: 4%
off-target kinases [4]; read-out: % Inhibition 2
  inhibition: 9%
off-target kinases [4]; read-out: % Inhibition Avg
  inhibition: 7%
off-target kinases [5]; read-out: % Inhibition 1
  inhibition: 57%
off-target kinases [5]; read-out: % Inhibition 2
  inhibition: 43%
off-target kinases [5]; read-out: % Inhibition Avg
  inhibition: 50%
off-target kinases [6]; read-out: % Inhibition 1
  inhibition: 21%
off-target kinases [6]; read-out: % Inhibition 2
  inhibition: 21%
off-target kinases [6]; read-out: % Inhibition Avg
  inhibition: 21%
off-target kinases [7]; read-out: % Inhibition 1
  inhibition: 39%
off-target kinases [7]; read-out: % Inhibition 2
  inhibition: 37%
off-target kinases [7]; read-out: % Inhibition Avg
  inhibition: 38%
off-target kinases [8]; read-out: % Inhibition 1
  inhibition: 30%
off-target kinases [8]; read-out: % Inhibition 2
  inhibition: 38%
off-target kinases [8]; read-out: % Inhibition Avg
  inhibition: 34%
off-target kinases [9]; read-out: % Inhibition 1
  inhibition: 25%
off-target kinases [9]; read-out: % Inhibition 2
  inhibition: 26%
off-target kinases [9]; read-out: % Inhibition Avg
  inhibition: 25%
off-target kinases [10]; CAMK2A (CaMKII alpha), ZLYTE, ATP Km app, read-out: % Inhibition 1
  inhibition: 4%
off-target kinases [10]; CAMK2A (CaMKII alpha), ZLYTE, ATP Km app, read-out: % Inhibition Avg
  inhibition: 2%
off-target kinases [10]; read-out: % Inhibition 2
  inhibition: 0%
off-target kinases [11]; read-out: % Inhibition 1
  inhibition: 5%
off-target kinases [11]; read-out: % Inhibition 2
  inhibition: 2%
off-target kinases [11]; read-out: % Inhibition Avg
  inhibition: 3%
